According to patent publication US20210070748A1, “INHIBITORS OF BRUTONS TYROSINE KINASE” (Pharmacyclics LLC, priority 2015, published 2021):

How the values were obtained:
Type in all cases: biochemical
[1] = molecular target: T1, ITK (Homo sapiens, UniProt Q08881); experiment: Inhibition of a panel of kinases, in vitro HotSpot kinase assay: ITK; settings: D-compounds panel data; 1 μM ATP
T1 sequence (Q08881 1-620): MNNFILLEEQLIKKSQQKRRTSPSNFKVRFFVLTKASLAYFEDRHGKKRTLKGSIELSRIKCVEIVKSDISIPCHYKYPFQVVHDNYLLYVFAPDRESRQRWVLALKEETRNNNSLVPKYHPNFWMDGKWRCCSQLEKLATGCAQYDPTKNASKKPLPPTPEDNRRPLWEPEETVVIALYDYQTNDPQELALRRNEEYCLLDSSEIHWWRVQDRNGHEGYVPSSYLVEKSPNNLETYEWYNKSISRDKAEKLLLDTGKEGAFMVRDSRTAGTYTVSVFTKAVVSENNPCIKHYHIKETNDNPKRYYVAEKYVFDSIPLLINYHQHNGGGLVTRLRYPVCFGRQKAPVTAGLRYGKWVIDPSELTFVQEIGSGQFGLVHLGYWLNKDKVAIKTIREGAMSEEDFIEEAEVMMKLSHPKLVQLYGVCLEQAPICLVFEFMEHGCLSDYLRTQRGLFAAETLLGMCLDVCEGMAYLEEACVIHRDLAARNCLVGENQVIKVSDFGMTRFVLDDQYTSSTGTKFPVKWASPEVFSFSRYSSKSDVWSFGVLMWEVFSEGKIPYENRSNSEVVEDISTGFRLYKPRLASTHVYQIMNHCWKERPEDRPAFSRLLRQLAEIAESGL
Protocol: (§1) The degree of inhibition of a panel of kinases is determined using the in vitro HotSpot kinase assay (purified enzymes, ^33P-ATP, an appropriate substrate and 1 μM ATP).

[2] = molecular target: EGFR (Homo sapiens, UniProt P00533); experiment: Inhibition of a panel of kinases, in vitro HotSpot kinase assay: EGFR; settings: D-compounds panel data; 1 μM ATP
Chain of EGFR (P00533 25-1210): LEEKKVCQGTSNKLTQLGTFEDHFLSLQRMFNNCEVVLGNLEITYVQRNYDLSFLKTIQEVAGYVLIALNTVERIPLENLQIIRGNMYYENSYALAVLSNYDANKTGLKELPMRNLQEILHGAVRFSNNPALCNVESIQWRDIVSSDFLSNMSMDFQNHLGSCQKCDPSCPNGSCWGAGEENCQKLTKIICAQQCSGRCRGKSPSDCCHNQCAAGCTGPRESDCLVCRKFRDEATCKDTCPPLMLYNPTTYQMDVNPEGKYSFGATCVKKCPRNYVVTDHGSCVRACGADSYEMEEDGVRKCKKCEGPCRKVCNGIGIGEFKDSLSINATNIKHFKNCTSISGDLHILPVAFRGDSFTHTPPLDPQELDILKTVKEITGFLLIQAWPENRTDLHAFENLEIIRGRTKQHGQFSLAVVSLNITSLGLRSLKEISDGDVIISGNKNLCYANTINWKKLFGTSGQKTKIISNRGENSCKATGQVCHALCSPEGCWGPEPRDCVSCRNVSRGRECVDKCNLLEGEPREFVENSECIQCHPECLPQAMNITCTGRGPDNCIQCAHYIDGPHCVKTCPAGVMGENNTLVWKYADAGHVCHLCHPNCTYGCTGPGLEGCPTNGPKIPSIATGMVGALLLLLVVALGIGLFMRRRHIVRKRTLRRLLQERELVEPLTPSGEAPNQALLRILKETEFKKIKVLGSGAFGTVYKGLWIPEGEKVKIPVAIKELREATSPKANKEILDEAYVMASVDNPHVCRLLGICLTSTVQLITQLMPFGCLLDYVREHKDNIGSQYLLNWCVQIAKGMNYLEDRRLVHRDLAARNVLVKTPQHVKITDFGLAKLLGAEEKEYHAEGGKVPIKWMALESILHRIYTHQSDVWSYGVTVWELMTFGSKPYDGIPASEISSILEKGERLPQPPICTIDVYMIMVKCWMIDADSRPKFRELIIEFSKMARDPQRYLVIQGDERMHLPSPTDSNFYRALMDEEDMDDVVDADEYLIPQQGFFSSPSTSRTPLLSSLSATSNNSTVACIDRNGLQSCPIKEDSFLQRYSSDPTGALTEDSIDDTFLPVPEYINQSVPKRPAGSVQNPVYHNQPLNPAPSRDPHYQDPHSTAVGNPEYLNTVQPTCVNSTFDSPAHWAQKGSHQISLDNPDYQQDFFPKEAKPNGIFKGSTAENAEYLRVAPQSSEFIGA
Protocol: as §1

[3] = molecular target: T2, JAK3 (Homo sapiens, UniProt P52333); experiment: Inhibition of a panel of kinases, in vitro HotSpot kinase assay: JAK3; settings: D-compounds panel data; 1 μM ATP; read-out: IC50 JAK3
T2 sequence (P52333 1-1124): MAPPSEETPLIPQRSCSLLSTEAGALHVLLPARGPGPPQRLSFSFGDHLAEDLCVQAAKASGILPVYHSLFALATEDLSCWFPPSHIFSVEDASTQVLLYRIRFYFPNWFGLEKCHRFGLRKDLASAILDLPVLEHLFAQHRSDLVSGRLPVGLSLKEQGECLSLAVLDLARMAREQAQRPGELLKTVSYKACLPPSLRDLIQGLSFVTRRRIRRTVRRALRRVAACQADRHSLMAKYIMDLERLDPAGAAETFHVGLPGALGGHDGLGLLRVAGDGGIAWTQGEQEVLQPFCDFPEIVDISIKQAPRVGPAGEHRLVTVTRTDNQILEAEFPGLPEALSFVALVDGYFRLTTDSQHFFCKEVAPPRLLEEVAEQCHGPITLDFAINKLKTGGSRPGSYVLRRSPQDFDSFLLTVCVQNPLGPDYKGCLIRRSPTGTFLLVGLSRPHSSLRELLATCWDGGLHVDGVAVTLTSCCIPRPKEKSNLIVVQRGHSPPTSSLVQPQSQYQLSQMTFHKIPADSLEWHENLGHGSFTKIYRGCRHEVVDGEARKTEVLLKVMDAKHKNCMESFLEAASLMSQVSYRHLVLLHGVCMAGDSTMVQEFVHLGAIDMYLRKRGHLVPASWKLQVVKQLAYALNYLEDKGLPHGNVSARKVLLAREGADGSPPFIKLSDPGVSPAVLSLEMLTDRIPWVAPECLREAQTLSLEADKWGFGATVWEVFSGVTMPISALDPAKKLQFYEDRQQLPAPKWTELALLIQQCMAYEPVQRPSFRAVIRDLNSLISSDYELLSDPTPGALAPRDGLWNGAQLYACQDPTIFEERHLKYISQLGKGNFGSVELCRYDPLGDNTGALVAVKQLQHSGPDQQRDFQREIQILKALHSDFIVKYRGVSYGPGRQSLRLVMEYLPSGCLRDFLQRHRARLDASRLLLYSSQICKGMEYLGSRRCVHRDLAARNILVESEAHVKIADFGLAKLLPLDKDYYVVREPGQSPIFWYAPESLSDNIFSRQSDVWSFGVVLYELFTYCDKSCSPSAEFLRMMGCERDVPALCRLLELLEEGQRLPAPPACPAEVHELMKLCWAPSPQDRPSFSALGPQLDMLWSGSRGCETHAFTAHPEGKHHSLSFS

[4] = molecular target: T3, TEC (Homo sapiens, UniProt P42680); experiment: Inhibition of a panel of kinases, in vitro HotSpot kinase assay: TEC; settings: D-compounds panel data; 1 μM ATP
T3 sequence (P42680 1-631): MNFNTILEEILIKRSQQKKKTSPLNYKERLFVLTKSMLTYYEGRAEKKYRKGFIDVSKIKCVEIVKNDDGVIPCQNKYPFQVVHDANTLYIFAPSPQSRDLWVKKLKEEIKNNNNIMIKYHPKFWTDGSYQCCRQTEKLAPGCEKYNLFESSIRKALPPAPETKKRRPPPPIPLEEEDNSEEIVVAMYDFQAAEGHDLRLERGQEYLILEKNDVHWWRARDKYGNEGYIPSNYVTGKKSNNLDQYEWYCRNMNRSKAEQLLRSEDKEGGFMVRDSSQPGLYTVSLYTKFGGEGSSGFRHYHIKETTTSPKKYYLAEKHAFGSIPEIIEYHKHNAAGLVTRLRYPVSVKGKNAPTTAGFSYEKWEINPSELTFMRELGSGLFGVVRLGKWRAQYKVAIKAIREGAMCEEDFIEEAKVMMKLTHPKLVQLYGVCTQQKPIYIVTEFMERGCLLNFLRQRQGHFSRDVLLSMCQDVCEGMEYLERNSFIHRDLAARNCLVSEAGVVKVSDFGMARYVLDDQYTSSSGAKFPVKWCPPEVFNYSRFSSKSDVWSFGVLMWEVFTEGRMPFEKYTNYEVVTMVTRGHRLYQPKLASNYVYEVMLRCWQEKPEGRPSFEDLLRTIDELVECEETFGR
Protocol: as §1

[5] = molecular target: SRC (Homo sapiens, UniProt P12931); experiment: Inhibition of a panel of kinases, in vitro HotSpot kinase assay: SRC; settings: D-compounds panel data; 1 μM ATP
Chain of SRC (P12931 whole entry): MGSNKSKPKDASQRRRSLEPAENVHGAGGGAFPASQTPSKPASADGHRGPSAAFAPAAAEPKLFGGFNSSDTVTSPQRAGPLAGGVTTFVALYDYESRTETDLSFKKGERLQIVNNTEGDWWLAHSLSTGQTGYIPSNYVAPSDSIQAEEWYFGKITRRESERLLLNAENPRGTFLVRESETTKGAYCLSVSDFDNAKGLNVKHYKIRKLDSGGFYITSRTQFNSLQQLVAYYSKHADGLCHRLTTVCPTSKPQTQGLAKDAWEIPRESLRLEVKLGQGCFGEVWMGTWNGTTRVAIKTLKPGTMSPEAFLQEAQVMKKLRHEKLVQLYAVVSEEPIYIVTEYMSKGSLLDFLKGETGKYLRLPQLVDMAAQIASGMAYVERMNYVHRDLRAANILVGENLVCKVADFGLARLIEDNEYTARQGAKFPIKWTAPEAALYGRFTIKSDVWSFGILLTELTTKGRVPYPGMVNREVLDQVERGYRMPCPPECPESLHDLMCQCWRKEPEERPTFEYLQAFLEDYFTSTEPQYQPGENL
Protocol: as §1

| SMILES | IC50 [1] [nM] | IC50 [2] [nM] | IC50 [3] [nM] | IC50 [4] [nM] | IC50 [5] [nM] |
| --- | --- | --- | --- | --- | --- |
| C[C@@H]1[C@H](NC(=O)c2ccc(C3CC3)nc2)CCCN1c1cnc(C(N)=O)c(Nc2cnn(C)c2)n1 [Example D-18, 5-[(2R,3R)-3-(6-cyclopropylpyridine-3-amido)-2-methylpiperidin-1-yl]-3-[(1-methyl-1H-pyrazol-4-yl)amino]pyrazine-2-carboxamide] | 100 to 1000 | 1000 to 10000 | 1000 to 10000 | 10 to 100 | 10 to 100 |
| CN1CCN(C(=O)c2ccc(Nc3nc(N4CCC[C@@H](n5ccc6cc(C7CC7)ccc6c5=O)C4)cnc3C(N)=O)cc2)CC1 [Example D-169, 5-[(3R)-3-(6-cyclopropyl-1-oxo-1,2-dihydroisoquinolin-2-yl)piperidin-1-yl]-3-{[4-(4-methylpiperazine-1-carbonyl)phenyl]amino}pyrazine-2-carboxamide] | 100 to 1000 | 100 to 1000 | 100 to 1000 | 10 to 100 | 100 to 1000 |
| C/C=C/c1ccc(C(=O)N[C@@H]2CCCN(c3cnc(C(N)=O)c(Nc4cc(C)ns4)c3)[C@@H]2C)c(F)c1 [Example D-170, 5-[(2R,3R)-3-{2-fluoro-4-[(1E)-prop-1-en-1-yl]benzamido}-2-methylpiperidin-1-yl]-3-[(3-methyl-1,2-thiazol-5-yl)amino]pyridine-2-carboxamide] | > 10000 | 100 to 1000 | 1000 to 10000 | 100 to 1000 | 100 to 1000 |
| Cc1cc(Nc2nc(N3CCC[C@@H](c4ncc(-c5ccccc5)[nH]4)C3)cnc2C(N)=O)sn1 [Example D-171, 3-[(3-methyl-1,2-thiazol-5-yl)amino]-5-[(3R)-3-(5-phenyl-1H-imidazol-2-yl)piperidin-1-yl]pyrazine-2-carboxamide] | > 10000 | > 10000 | 100 to 1000 | 100 to 1000 | 100 to 1000 |
| Cc1cc(Nc2nc(N3CCC[C@H](c4ncc(-c5ccccc5)[nH]4)C3)cnc2C(N)=O)sn1 [Example D-172, 3-[(3-methyl-1,2-thiazol-5-yl)amino]-5-[(3S)-3-(5-phenyl-1H-imidazol-2-yl)piperidin-1-yl]pyrazine-2-carboxamide] | > 10000 | 10 to 100 | 100 to 1000 | 100 to 1000 | 100 to 1000 |
| C[C@@H]1[C@H](NC(=O)c2ccc(C3CC3)cc2F)CCCN1c1cnc(C(N)=O)c(Nc2cc(CN3CCOCC3)ns2)n1 [Example D-173, 5-[(2R,3R)-3-(4-cyclopropyl-2-fluorobenzamido)-2-methylpiperidin-1-yl]-3-{[3-(morpholin-4-ylmethyl)-1,2-thiazol-5-yl]amino}pyrazine-2-carboxamide] | 100 to 1000 | 100 to 1000 | 100 to 1000 | 10 to 100 | 10 to 100 |
| CN1CCN(c2ccc(Nc3nc(N4CCC[C@@H](n5ccc6cc(C7CC7)cc(F)c6c5=O)C4)cnc3C(N)=O)cc2)CC1 [Example D-174, 5-[(3R)-3-(6-cyclopropyl-8-fluoro-1-oxo-1,2-dihydroisoquinolin-2-yl)piperidin-1-yl]-3-{[4-(4-methylpiperazin-1-yl)phenyl]amino}pyrazine-2-carboxamide] | 100 to 1000 | 100 to 1000 | 100 to 1000 | 10 to 100 | 10 to 100 |
| Cc1cc(Nc2cc(N3CCC[C@@H](NC(=O)N(C)C)[C@H]3C)cnc2C(N)=O)sn1 [Example D-175, 5-[(2R,3R)-3-[(dimethylcarbamoyl)amino]-2-methylpiperidin-1-yl]-3-[(3-methyl-1,2-thiazol-5-yl)amino]pyridine-2-carboxamide] | 1000 to 10000 | 1000 to 10000 | 1000 to 10000 | 1000 to 10000 | 100 to 1000 |
| C[C@@H]1[C@H](NC(=O)c2ccc(C3CC3)cc2F)CCCN1c1cnc(C(N)=O)c(Nc2cc(CN3CCCCC3)ns2)n1 [Example D-176, 5-[(2R,3R)-3-(4-cyclopropyl-2-fluorobenzamido)-2-methylpiperidin-1-yl]-3-{[3-(piperidin-1-ylmethyl)-1,2-thiazol-5-yl]amino}pyrazine-2-carboxamide] | 100 to 1000 | > 10000 | 100 to 1000 | 10 to 100 | 10 to 100 |
| CC1(c2ccc(Nc3nc(N4CCC[C@@H](n5ccc6cc(C7CC7)ccc6c5=O)C4)cnc3C(N)=O)cc2)CCN(C2CCCC2)CC1 [Example D-177, 3-{[4-(1-cyclopentyl-4-methylpiperidin-4-yl)phenyl]amino}-5-[(3R)-3-(6-cyclopropyl-1-oxo-1,2-dihydroisoquinolin-2-yl)piperidin-1-yl]pyrazine-2-carboxamide] | 10 to 100 | 100 to 1000 | 100 to 1000 | ≤ 10 | 10 to 100 |
| CN1CCN(c2ccc(Nc3cc(N4CCC[C@@H](n5ccc6cc(C7CC7)ccc6c5=O)C4)cnc3C(N)=O)cc2)CC1 [Example D-178, 5-[(3R)-3-(6-cyclopropyl-1-oxo-1,2-dihydroisoquinolin-2-yl)piperidin-1-yl]-3-{[4-(4-methylpiperazin-1-yl)phenyl]amino}pyridine-2-carboxamide] | 1000 to 10000 | > 10000 | > 10000 | 1000 to 10000 | 1000 to 10000 |
| CN1CCN(c2ccc(Nc3nc(N4CCC[C@@H](n5ccc6cc(C7CC7)ccc6c5=O)C4)cnc3C(N)=O)nc2)CC1 [Example D-179, 5-[(3R)-3-(6-cyclopropyl-1-oxo-1,2-dihydroisoquinolin-2-yl)piperidin-1-yl]-3-{[5-(4-methylpiperazin-1-yl)pyridin-2-yl]amino}pyrazine-2-carboxamide] | 1000 to 10000 | > 10000 | > 10000 | 1000 to 10000 | > 10000 |
| C[C@@H]1[C@H](NC(=O)N(C)C)CCCN1c1cnc(C(N)=O)c(Nc2ccc(N3CCN(C)CC3)cn2)n1 [Example D-180, 5-[(2R,3R)-3-[(dimethylcarbamoyl)amino]-2-methylpiperidin-1-yl]-3-{[5-(4-methylpiperazin-1-yl)pyridin-2-yl]amino}pyrazine-2-carboxamide] | > 10000 | 1000 to 10000 | > 10000 | > 10000 | > 10000 |
